These compounds were tested against T1, PI3Kα (p110α/p85α) (Homo sapiens, UniProt P42336) (assay: HTRF assay, potency against active PI3Kα). Settings: HTRF; [ATP]=50 μM, [di-C8-PIP2]=10 μM; 30 min pre-incubation; read-out: PI3Kα Inhibition.
T1 construct: purchased BPS Bioscience (San Diego, Calif.) or Millipore (Billerica, Mass.)
Format: biochemical
Description: Homogeneous Time Resolved Fluorescence (HTRF) Assay Protocol for Potency Assessment Against the Active Forms of PI3Kα, PI3Kβ, and PI3Kγ
The mechanics of the assay platform are best described by the vendor (Millipore, Billerica, Mass.) on their website at the following URL: www.millipore.com/coa/tech1/74jt4z.
Briefly, Stop solution (Stop A, #33-007 and Stop B, #33-009; 3:1 ratio) and Detection Mix (from DMC, #33-015 with DMA, #33-011 and DMB, #33-013; 18:1:1 ratio) were prepared as recommended by the manufacturer about 2 hrs prior to use. […] Lipid kinase reactions were started with the addition of 5 μL of ATP solution, mixed for 15 sec on a rotary plate shaker and incubated for 30-60 minutes at 25° C. Next, reactions were stopped with a 5 μL addition of Stop solution immediately followed by a 5 μL volume of Detection Mix. […] At the conclusion of each assay, the HTRF ratio from fluorescence emission values for each well was calculated and % Inhibition determined from averaged controls wells (+/−PI3K enzyme). % Inhibition values for each compound were then plotted against inhibitor concentration to estimate IC50 from log [Inhibitor] vs Response, Variable Slope model in GraphPad Prism from GraphPad Software (San Diego, Calif.).

T1 sequence (P42336 whole entry): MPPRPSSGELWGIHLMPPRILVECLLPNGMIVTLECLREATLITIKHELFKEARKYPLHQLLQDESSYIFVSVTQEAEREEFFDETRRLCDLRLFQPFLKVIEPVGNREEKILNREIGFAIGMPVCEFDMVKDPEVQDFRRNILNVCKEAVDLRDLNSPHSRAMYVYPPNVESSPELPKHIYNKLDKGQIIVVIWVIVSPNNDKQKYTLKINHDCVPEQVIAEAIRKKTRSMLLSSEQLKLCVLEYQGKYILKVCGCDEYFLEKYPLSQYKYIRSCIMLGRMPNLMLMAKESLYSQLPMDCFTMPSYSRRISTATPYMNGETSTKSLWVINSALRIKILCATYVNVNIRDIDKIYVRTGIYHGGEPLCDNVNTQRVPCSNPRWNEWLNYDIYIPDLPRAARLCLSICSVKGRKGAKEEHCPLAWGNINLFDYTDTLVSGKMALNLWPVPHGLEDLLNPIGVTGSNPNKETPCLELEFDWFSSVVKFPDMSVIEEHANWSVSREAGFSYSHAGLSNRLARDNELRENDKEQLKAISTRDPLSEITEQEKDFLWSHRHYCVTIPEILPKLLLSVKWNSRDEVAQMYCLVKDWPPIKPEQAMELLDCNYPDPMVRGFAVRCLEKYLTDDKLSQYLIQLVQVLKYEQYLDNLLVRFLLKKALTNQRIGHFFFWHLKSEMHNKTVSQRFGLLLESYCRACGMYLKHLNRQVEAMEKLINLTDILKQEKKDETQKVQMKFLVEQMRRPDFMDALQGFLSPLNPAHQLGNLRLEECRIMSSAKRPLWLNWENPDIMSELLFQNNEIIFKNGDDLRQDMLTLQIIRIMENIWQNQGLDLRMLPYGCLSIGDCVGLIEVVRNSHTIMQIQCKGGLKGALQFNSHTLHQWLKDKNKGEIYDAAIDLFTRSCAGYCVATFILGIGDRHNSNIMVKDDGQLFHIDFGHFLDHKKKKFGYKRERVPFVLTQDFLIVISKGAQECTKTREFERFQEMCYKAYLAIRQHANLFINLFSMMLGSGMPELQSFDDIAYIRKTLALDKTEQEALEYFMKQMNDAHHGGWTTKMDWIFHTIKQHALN
T1 sequence (P27986 whole entry partner): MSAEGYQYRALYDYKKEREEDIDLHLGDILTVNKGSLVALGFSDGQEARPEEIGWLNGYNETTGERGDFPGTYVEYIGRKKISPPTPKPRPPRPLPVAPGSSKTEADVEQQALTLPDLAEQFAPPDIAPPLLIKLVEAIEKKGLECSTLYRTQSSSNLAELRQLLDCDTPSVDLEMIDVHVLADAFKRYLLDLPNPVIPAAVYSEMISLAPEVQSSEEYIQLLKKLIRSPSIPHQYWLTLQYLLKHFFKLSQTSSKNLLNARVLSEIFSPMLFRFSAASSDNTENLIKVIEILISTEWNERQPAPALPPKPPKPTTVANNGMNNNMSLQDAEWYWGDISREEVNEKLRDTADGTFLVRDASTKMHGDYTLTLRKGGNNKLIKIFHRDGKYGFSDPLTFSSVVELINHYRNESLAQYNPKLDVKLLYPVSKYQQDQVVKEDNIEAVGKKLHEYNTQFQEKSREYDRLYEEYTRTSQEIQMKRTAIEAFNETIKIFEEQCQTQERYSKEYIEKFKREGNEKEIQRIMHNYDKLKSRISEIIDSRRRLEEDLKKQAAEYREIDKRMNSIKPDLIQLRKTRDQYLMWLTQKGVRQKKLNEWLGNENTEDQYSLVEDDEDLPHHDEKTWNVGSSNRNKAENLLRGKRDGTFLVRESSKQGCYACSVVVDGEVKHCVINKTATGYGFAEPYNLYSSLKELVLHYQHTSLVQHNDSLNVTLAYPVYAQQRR

Row | IC50 | Structure (SMILES)
1 | 100 to 1000 nM | C=CC(=O)N1CCN(C2CCC(O)(c3cc4nc(-c5cccc6[nH]ncc56)nc(N5CCOCC5)c4s3)CC2)CC1 (mixture of isomers) [II-a-152, 1-(4-(4-(2-(1H-indazol-4-yl)-4-morpholinothieno[3,2-d]pyrimidin-6-yl)-4-hydroxycyclohexyl)piperazin-1-yl)prop-2-en-1-one]
2 | > 1000 nM | C=CC(=O)NCc1ccc(OC)c(-n2c(CSc3ncnc4[nH]cnc34)nc3cccc(Cl)c3c2=O)c1 [I-5, N-(3-(2-((9H-purin-6-ylthio)methyl)-5-chloro-4-oxoquinazolin-3(4H)-yl)-4-methoxybenzyl)acrylamide]
3 | > 1000 nM | C/C=C/C(=O)CCC(=O)NCc1ccc(OC)c(-n2c(CSc3ncnc4[nH]cnc34)nc3cccc(Cl)c3c2=O)c1 [I-6, (E)-N-(3-(2-((9H-purin-6-ylthio)methyl)-5-chloro-4-oxoquinazolin-3(4H)-yl)-4-methoxybenzyl)-4-oxohept-5-enamide]
4 | 10 to 100 nM | C=CC(=O)N1CCN(Cc2cc3nc(-c4cccc5[nH]ncc45)nc(N4CCOCC4)c3s2)CC1 [II-a-2, 1-(4-((2-(1H-indazol-4-yl)-4-morpholinothieno[3,2-d]pyrimidin-6-yl)methyl)piperazin-1-yl)prop-2-en-1-one]
5 | 10 to 100 nM | C/C=C/C(=O)CCC(=O)NCCCC(=O)N1CCN(Cc2cc3nc(-c4cccc5[nH]ncc45)nc(N4CCOCC4)c3s2)CC1 [II-a-19, (E)-N-(4-(4-((2-(1H-indazol-4-yl)-4-morpholinothieno[3,2-d]pyrimidin-6-yl)methyl)piperazin-1-yl)-4-oxobutyl)-4-oxohept-5-enamide]
6 | 100 to 1000 nM | C=CC(=O)NCCCC(=O)N1CCN(Cc2cc3nc(-c4cccc5[nH]ncc45)nc(N4CCOCC4)c3s2)CC1 [II-a-20, N-(4-(4-((2-(1H-indazol-4-yl)-4-morpholinothieno[3,2-d]pyrimidin-6-yl)methyl)piperazin-1-yl)-4-oxobutyl)acrylamide]
7 | 10 to 100 nM | C/C=C/C(=O)CCCC(=O)N1CC=C(c2cc3nc(-c4cccc5[nH]ncc45)nc(N4CCOCC4)c3s2)CC1 [II-a-60, (E)-1-(4-(2-(1H-indazol-4-yl)-4-morpholinothieno[3,2-d]pyrimidin-6-yl)-5,6-dihydropyridin-1(2H)-yl)oct-6-ene-1,5-dione]
8 | < 10 nM | C/C=C/C(=O)CCCC(=O)NCC(=O)N1CC=C(c2cc3nc(-c4cccc5[nH]ncc45)nc(N4CCOCC4)c3s2)CC1 [II-a-61, (E)-N-(2-(4-(2-(1H-indazol-4-yl)-4-morpholinothieno[3,2-d]pyrimidin-6-yl)-5,6-dihydropyridin-1(2H)-yl)-2-oxoethyl)-5-oxooct-6-enamide]
9 | 10 to 100 nM | CC(C)OC/C=C/C(=O)CCC(=O)N1CCN(Cc2cc3nc(-c4cccc5[nH]ncc45)nc(N4CCOCC4)c3s2)CC1 [II-a-62, (E)-1-(4-((2-(1H-indazol-4-yl)-4-morpholinothieno[3,2-d]pyrimidin-6-yl)methyl)piperazin-1-yl)-7-isopropoxyhept-5-ene-1,4-dione]
10 | < 10 nM | CCC/C=C/C(=O)CCC(=O)N1CCN(Cc2cc3nc(-c4cccc5[nH]ncc45)nc(N4CCOCC4)c3s2)CC1 [II-a-63, (E)-1-(4-((2-(1H-indazol-4-yl)-4-morpholinothieno[3,2-d]pyrimidin-6-yl)methyl)piperazin-1-yl)non-5-ene-1,4-dione]
11 | < 10 nM | C=CC(=O)NCc1ccc(-c2cc3nc(-c4cccc(O)c4)nc(N4CCOCC4)c3s2)cc1 [II-a-65, N-(4-(2-(3-hydroxyphenyl)-4-morpholinothieno[3,2-d]pyrimidin-6-yl)benzyl)acrylamide]
12 | 10 to 100 nM | C=CC(=O)N1CCc2cc(-c3cc4nc(-c5cccc(O)c5)nc(N5CCOCC5)c4s3)ccc2C1 [II-a-66, 1-(6-(2-(3-hydroxyphenyl)-4-morpholinothieno[3,2-d]pyrimidin-6-yl)-3,4-dihydroisoquinolin-2(1H)-yl)prop-2-en-1-one]
13 | < 10 nM | C/C=C/C(=O)CCC(=O)N1CCc2ccc(-c3cc4nc(-c5cccc(O)c5)nc(N5CCOCC5)c4s3)cc2C1 [II-a-67, (E)-1-(7-(2-(3-hydroxyphenyl)-4-morpholinothieno[3,2-d]pyrimidin-6-yl)-3,4-dihydroisoquinolin-2(1H)-yl)hept-5-ene-1,4-dione]
14 | < 10 nM | C/C=C/C(=O)CCC(=O)N1Cc2ccc(-c3cc4nc(-c5cccc(O)c5)nc(N5CCOCC5)c4s3)cc2C1 [II-a-68, (E)-1-(5-(2-(3-hydroxyphenyl)-4-morpholinothieno[3,2-d]pyrimidin-6-yl)isoindolin-2-yl)hept-5-ene-1,4-dione]
15 | 10 to 100 nM | C=CC(=O)N1CCC(O)(C#Cc2cc3nc(-c4cccc(O)c4)nc(N4CCOCC4)c3s2)CC1 [II-a-69, 1-(4-hydroxy-4-((2-(3-hydroxyphenyl)-4-morpholinothieno[3,2-d]pyrimidin-6-yl)ethynyl)piperidin-1-yl)prop-2-en-1-one]
16 | 10 to 100 nM | C=CC(=O)N1CCC(C#Cc2cc3nc(-c4cccc(O)c4)nc(N4CCOCC4)c3s2)CC1 [II-a-70, 1-(4-((2-(3-hydroxyphenyl)-4-morpholinothieno[3,2-d]pyrimidin-6-yl)ethynyl)piperidin-1-yl)prop-2-en-1-one]

Row | IC50 | Structure (SMILES)
17 | 100 to 1000 nM | C=CC(=O)N1CCN(c2ccc(-c3cc4nc(-c5cccc6[nH]ncc56)nc(N5CCOCC5)c4s3)cc2)CC1 [II-a-78, 1-(4-(4-(2-(1H-indazol-4-yl)-4-morpholinothieno[3,2-d]pyrimidin-6-yl)phenyl)piperazin-1-yl)prop-2-en-1-one]
18 | < 10 nM | C/C=C/C(=O)CCC(=O)NCc1cccc(-c2cc3nc(-c4cccc(O)c4)nc(N4CCOCC4)c3s2)c1 [II-a-79, (E)-N-(3-(2-(3-hydroxyphenyl)-4-morpholinothieno[3,2-d]pyrimidin-6-yl)benzyl)-4-oxohept-5-enamide]
19 | < 10 nM | C/C=C/C(=O)CCC(=O)NCc1ccc(-c2cc3nc(-c4cccc(O)c4)nc(N4CCOCC4)c3s2)cc1 [II-a-80, (E)-N-(4-(2-(3-hydroxyphenyl)-4-morpholinothieno[3,2-d]pyrimidin-6-yl)benzyl)-4-oxohept-5-enamide]
20 | 10 to 100 nM | C=CC(=O)NC1CCN(c2ccc(-c3cc4nc(-c5cccc(O)c5)nc(N5CCOCC5)c4s3)cc2)CC1 [II-a-81, N-(1-(4-(2-(3-hydroxyphenyl)-4-morpholinothieno[3,2-d]pyrimidin-6-yl)phenyl)piperidin-4-yl)acrylamide]
21 | > 1000 nM | C=CC(=O)NCCC(=O)N1CC=C(c2cc3nc(-c4cccc5[nH]ncc45)nc(N4CCOCC4)c3s2)CC1 [II-a-95, N-(3-(4-(2-(1H-indazol-4-yl)-4-morpholinothieno[3,2-d]pyrimidin-6-yl)-5,6-dihydropyridin-1(2H)-yl)-3-oxopropyl)acrylamide]
22 | 100 to 1000 nM | C=CC(=O)N[C@H]1CCCC[C@H]1C(=O)N1CCN(Cc2cc3nc(-c4cccc5[nH]ncc45)nc(N4CCOCC4)c3s2)CC1 [II-a-96]
23 | 100 to 1000 nM | C=CC(=O)N[C@@H]1CCCC[C@H]1C(=O)N1CCN(Cc2cc3nc(-c4cccc5[nH]ncc45)nc(N4CCOCC4)c3s2)CC1 [II-a-97]
24 | 100 to 1000 nM | C=CC(=O)N[C@H]1CCC[C@@H](C(=O)N2CCN(Cc3cc4nc(-c5cccc6[nH]ncc56)nc(N5CCOCC5)c4s3)CC2)C1 [II-a-98]
25 | 100 to 1000 nM | C=CC(=O)N[C@H]1CC[C@@H](C(=O)N2CCN(Cc3cc4nc(-c5cccc6[nH]ncc56)nc(N5CCOCC5)c4s3)CC2)CC1 [II-a-99]
26 | 100 to 1000 nM | C=CC(=O)N[C@H]1CC[C@H](C(=O)N2CCN(Cc3cc4nc(-c5cccc6[nH]ncc56)nc(N5CCOCC5)c4s3)CC2)CC1 [II-a-100]
27 | 100 to 1000 nM | C=CC(=O)N1CCC(O)(C#Cc2cc3nc(-c4cccc5[nH]ncc45)nc(N4CCOCC4)c3s2)CC1 [II-a-101, 1-(4-((2-(1H-indazol-4-yl)-4-morpholinothieno[3,2-d]pyrimidin-6-yl)ethynyl)-4-hydroxypiperidin-1-yl)prop-2-en-1-one]
28 | < 10 nM | C/C=C/C(=O)CCC(=O)N1CCN(c2ccc(-c3cc4nc(-c5cccc(O)c5)nc(N5CCOCC5)c4s3)cc2)CC1 [II-a-102, (E)-1-(4-(4-(2-(3-hydroxyphenyl)-4-morpholinothieno[3,2-d]pyrimidin-6-yl)phenyl)piperazin-1-yl)hept-5-ene-1,4-dione]
29 | < 10 nM | C=C(C)C(=O)CCC(=O)N1CCC(C#Cc2cc3nc(-c4cccc(O)c4)nc(N4CCOCC4)c3s2)CC1 [II-a-103, 1-(4-((2-(3-hydroxyphenyl)-4-morpholinothieno[3,2-d]pyrimidin-6-yl)ethynyl)piperidin-1-yl)-5-methylhex-5-ene-1,4-dione]
30 | < 10 nM | C/C=C/C(=O)CCC(=O)N1CCC(O)(C#Cc2cc3nc(-c4cccc(O)c4)nc(N4CCOCC4)c3s2)CC1 [II-a-104, (E)-1-(4-hydroxy-4-((2-(3-hydroxyphenyl)-4-morpholinothieno[3,2-d]pyrimidin-6-yl)ethynyl)piperidin-1-yl)hept-5-ene-1,4-dione]
31 | < 10 nM | C=C(C)C(=O)CCC(=O)N1CCC(O)(C#Cc2cc3nc(-c4cccc(O)c4)nc(N4CCOCC4)c3s2)CC1 [II-a-105, 1-(4-hydroxy-4-((2-(3-hydroxyphenyl)-4-morpholinothieno[3,2-d]pyrimidin-6-yl)ethynyl)piperidin-1-yl)-5-methylhex-5-ene-1,4-dione]

Source: patent publication US20110230476A1, “PI3 KINASE INHIBITORS AND USES THEREOF” (AVILA THERAPEUTICS, INC., priority 2009, published 2011)
